Source: article PMC8284440, “Toward New Transmission-Blocking Combination Therapies: Pharmacokinetics of 10-Amino-Artemisinins and 11-Aza-Artemisinin and Comparison with Dihydroartemisinin and Artemether” (Antimicrobial Agents and Chemotherapy, 2021)
Like-named read-outs stand apart in the source and are kept apart here.

How the values were obtained:
[1] = Metabolic stability in mouse liver microsomes; assay type: in vitro ADME; design: half-life / CLint scaled: dose or concentration left out as unconfirmed; details: for CLint scaled: calculated, read-out: Intrinsic liver clearance rate CLint Mouse; for half-life: read-out: Microsomal half-life t1/2 Mouse
Procedure: (ii) Metabolic stability in liver microsomes. The metabolic stability assay was performed in duplicate using 96-deepwell plates. Each compound (0.4 mM) was incubated individually in mouse, rat, and pooled human liver microsomes (0.4 mg/ml) at 37°C in the presence and absence of the cofactor NADPH (1 mM). An aliquot was taken at 0, 5, 10, 30, and 60 min, and the reaction was quenched by adding 300 μl of ice-cold acetonitrile containing the internal standard carbamazepine (0.0236 μg/ml) ([88]). The test compounds in the supernatant were analyzed by means of LC-MS/MS as described in “Sample analysis” below. The normalized data for each sample were used to calculate the in vitro half-life, intrinsic clearance rate, and hepatic extraction ratio from the results of this assay using the following equations ([88]).Equation 1. Normalized area. (1) Normalized area=(Peak area of sample at time point/Peak area of internal standard) Equation 2. Percent parent remaining. (2) % Parent=Normalized peak area of sample at time point/Normalized peak area of sample at t=0×100 Equation 3. Calculated t1/2. (3) t1/2=−0.693/λ where λ is the slope of the ln (% parent remaining) versus time curve of the compound.Equation 4. CLint. (4) CLint=[0.693/t1/2(min)]×[Volume of incubation (μl)/Microsomal protein (μg)] Equation 5. Hepatic extraction ratio. (5) EH=fu×CLint/QH + fu×CLint
Sample extraction. […] The organic layer was then transferred and evaporated under a gentle stream of nitrogen at room temperature for 30 min. The dried samples were reconstituted in mobile phase, and a 5 μl sample was injected for LC-MS/MS analysis. The only exception was the arylurea 10, for which no liquid-liquid extraction was conducted; instead, the 200 μl acetonitrile solution was evaporated under a gentle stream of nitrogen at room temperature. The dried sample was reconstituted in the mobile phase, and a 5 μl sample was injected for LC-MS/MS analysis. The plasma samples for each compound from the in vivo studies were extracted by mixing 350 μl ethyl acetate with 15 μl of plasma sample and 35 μl of universal buffer containing internal standard at pH 8. The samples were vortexed for 1 min and centrifuged for 5 min, and the organic layer was then transferred and evaporated under a gentle stream of nitrogen at room temperature for 30 min. The dried samples were each reconstituted in the mobile phase, and a 5 μl sample was injected for LC-MS/MS analysis.
LC-MS/MS analysis. For all the artemisinins except the arylurea 10, gradient chromatography was performed on a Phenomenex (Torrance, CA, USA) Luna PFP(2) analytical column (100 Å, 5 μm, 2 by 50 mm) and an AB Sciex API 5500 mass spectrometer which was operated at unit resolution in the multiple reaction monitoring (MRM) mode. The HPLC method used was a gradient method with 5 mM ammonium acetate and 0.1% acetic acid in water as the aqueous phase and a mixture of acetonitrile and methanol (1:1 vol/vol) containing 5% of the aqueous phase as the organic phase ([89]). The arylurea 10 was analyzed using a Phenomenex Gemini NX-C18 (5 μm, 2.1 mm by 50 mm) column with an AB Sciex 3200 QTRAP mass spectrometer operated at unit resolution in the MRM mode. The HPLC method used was a gradient method with 5 mM ammonium acetate and 0.1% acetic acid in water as the aqueous phase and a mixture of acetonitrile and methanol (1:1 vol/vol). The transitions of the molecular ions were monitored, as listed in Table S8 in the supporting information. The calibration range was between 0.002 μg/ml and 6.250 μg/ml. Data acquisition and evaluation were performed using Analyst 1.6.2 software (Applied Biosystems, Foster City, CA, USA). The formation of the putative metabolite DHA from the amino-artemisinins and the metabolite M1 of artemisone were evaluated in these mice PK studies; the MRM transitions of DHA and M1 (Table S8) were thus included in the LC-MS/MS assays.

[2] = test system: late stage (>90% stage IV and V) P. falciparum NF54 gametocytes; details: cited from earlier work
[3] = Table S4, n = 1, ref 4 (supplement; main text 62), read-out: Late stage IC50 (Luciferase 72 h)
[4] = Table S3, ± SEM, ref 1 and 2 (supplement; main text 47, 48), read-out: Late Stage (LG, Luc 72 h) IC50

C[C@@H]1CC[C@H]2[C@@H](C)C(=O)N[C@@H]3O[C@@]4(C)CC[C@@H]1[C@]32OO4 [11-Aza-artemisinin 11, 11-aza-artemisinin]
Hepatic extraction ratio EH Mouse [1]: 0.3
CLint scaled [1]: 36.4 mL/min/kg
half-life [1]: > 150 min
IC50 [2, 3]: 166 nM

CO[C@H]1O[C@@H]2O[C@@]3(C)CC[C@H]4[C@H](C)CC[C@@H]([C@H]1C)[C@@]24OO3 [Artemether 3, artemether]
Hepatic extraction ratio EH Mouse [1]: 0.8
CLint scaled [1]: 393 mL/min/kg
half-life [1]: 17.4 min
IC50 [2, 3]: 224 nM

C[C@H]1[C@H](N2CCSCC2)O[C@@H]2O[C@@]3(C)CC[C@H]4[C@H](C)CC[C@@H]1[C@@]24OO3 [Artemiside 5, artemiside]
Hepatic extraction ratio EH Mouse [1]: 0.9
CLint scaled [1]: 551 mL/min/kg
half-life [1]: 12.4 min
IC50 [2, 4]: 1.5 ± 0.5 nM

C[C@H]1[C@H](N2CCS(=O)(=O)CC2)O[C@@H]2O[C@@]3(C)CC[C@H]4[C@H](C)CC[C@@H]1[C@@]24OO3 [Artemisone 6, artemisone]
Hepatic extraction ratio EH Mouse [1]: 0.9
CLint scaled [1]: 805 mL/min/kg
half-life [1]: < 10 min
IC50 [2, 4]: 42.4 ± 3.3 nM

C[C@H]1[C@H](N2CCN(C(=O)Nc3ccc(F)cc3)CC2)O[C@@H]2O[C@@]3(C)CC[C@H]4[C@H](C)CC[C@@H]1[C@@]24OO3 [Arylurea 10]
Hepatic extraction ratio EH Mouse [1]: 0.6
CLint scaled [1]: 2480 mL/min/kg
half-life [1]: < 10 min
IC50 [2, 4]: 17 ± 7 nM

C[C@H]1[C@@H](O)O[C@@H]2O[C@@]3(C)CC[C@H]4[C@H](C)CC[C@@H]1[C@@]24OO3 [DHA 2, dihydroartemisinin]
Hepatic extraction ratio EH Mouse [1]: 0.4
CLint scaled [1]: 50.2 mL/min/kg
half-life [1]: 136 min
IC50 [2, 4]: 33.7 ± 1.98 nM

C[C@H]1[C@H](N2C=CS(=O)(=O)CC2)O[C@@H]2O[C@@]3(C)CC[C@H]4[C@H](C)CC[C@@H]1[C@@]24OO3 [M1 12]
Hepatic extraction ratio EH Mouse [1]: 0.3
CLint scaled [1]: 37.4 mL/min/kg
half-life [1]: > 150 min

C[C@H]1[C@H](NS(N)(=O)=O)O[C@@H]2O[C@@]3(C)CC[C@H]4[C@H](C)CC[C@@H]1[C@@]24OO3 [Sulfamide 7]
Hepatic extraction ratio EH Mouse [1]: 0.3
CLint scaled [1]: 41.3 mL/min/kg
half-life [1]: > 150 min
IC50 [2, 4]: 419 nM
